# Measured values as given in patent publication US9776995B2, “Bicyclic sulfonamide compounds as sodium channel inhibitors” (AMGEN INC., priority 2013, dated 2017).
# Like-named read-outs stand apart in the source and are kept apart here.
# Target: Nav 1.7 (Homo sapiens (Human), UniProt Q15858)
# Assay: in-vitro Nav 1.7 PX data
# Type: cell-based
# Sequence of Nav 1.7 (Q15858 whole entry): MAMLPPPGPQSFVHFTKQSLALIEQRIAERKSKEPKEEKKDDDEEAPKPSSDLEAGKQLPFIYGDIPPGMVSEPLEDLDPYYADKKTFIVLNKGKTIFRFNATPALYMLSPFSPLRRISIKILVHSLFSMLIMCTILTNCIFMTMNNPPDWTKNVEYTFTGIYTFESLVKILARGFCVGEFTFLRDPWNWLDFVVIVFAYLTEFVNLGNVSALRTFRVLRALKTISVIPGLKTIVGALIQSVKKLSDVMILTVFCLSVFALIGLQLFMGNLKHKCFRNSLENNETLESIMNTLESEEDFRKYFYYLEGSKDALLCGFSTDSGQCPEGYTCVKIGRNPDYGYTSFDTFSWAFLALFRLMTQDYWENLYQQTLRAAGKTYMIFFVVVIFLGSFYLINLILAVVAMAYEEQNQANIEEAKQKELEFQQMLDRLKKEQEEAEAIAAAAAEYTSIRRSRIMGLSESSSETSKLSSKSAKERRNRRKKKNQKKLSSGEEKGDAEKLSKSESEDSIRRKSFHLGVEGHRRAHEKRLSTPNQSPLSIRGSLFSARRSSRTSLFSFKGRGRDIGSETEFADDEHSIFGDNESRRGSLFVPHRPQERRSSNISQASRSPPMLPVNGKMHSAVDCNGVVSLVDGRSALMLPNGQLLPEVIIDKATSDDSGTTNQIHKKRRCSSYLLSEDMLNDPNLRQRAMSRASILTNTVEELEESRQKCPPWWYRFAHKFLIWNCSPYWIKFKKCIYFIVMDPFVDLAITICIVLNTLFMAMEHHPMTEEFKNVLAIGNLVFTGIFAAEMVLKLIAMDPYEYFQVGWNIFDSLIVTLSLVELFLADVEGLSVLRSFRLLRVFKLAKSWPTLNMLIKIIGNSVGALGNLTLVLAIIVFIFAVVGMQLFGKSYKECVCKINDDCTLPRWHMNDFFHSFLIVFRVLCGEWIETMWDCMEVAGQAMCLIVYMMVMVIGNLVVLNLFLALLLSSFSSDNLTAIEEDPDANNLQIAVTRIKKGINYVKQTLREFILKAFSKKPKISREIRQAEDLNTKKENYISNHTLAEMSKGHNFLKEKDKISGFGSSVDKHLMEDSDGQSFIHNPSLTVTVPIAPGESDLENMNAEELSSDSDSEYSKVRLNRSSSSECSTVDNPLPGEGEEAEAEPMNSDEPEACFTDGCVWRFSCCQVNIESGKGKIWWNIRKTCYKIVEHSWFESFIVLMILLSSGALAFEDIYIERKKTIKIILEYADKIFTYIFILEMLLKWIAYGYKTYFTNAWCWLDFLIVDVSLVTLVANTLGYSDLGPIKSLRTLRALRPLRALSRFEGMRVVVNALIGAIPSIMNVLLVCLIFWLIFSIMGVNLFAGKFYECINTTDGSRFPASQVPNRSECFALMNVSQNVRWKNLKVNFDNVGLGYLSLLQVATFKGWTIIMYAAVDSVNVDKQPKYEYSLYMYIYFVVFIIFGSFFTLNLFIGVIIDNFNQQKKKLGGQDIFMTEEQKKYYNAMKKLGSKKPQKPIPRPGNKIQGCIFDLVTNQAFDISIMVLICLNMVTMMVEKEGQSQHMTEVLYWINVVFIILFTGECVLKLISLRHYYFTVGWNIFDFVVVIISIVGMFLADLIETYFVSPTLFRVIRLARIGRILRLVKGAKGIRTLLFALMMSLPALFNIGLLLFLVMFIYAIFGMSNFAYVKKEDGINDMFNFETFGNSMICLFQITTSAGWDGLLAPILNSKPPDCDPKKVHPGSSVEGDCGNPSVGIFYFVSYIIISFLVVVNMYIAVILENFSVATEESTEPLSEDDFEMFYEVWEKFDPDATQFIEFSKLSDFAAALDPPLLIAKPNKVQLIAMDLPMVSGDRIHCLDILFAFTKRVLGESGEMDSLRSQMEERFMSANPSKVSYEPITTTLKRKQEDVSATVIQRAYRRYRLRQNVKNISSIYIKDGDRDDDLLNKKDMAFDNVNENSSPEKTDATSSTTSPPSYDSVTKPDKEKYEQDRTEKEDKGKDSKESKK
smiles,measurement,setting,value
"COc1cc(-c2cc(F)cc(F)c2)ccc1-c1nccc2cc(S(=O)(=O)Nc3ccno3)ccc12 [Example 128, 1-(3′,5′-difluoro-3-methoxy-4-biphenylyl)-N-5-isoxazolyl-6-isoquinolinesulfonamide]",IC50,in-vitro PX data,3510 nM
"COc1cc(-c2ccc(Cl)c(C)c2)c(Cl)cc1-c1nccc2cc(S(=O)(=O)Nc3ccon3)ccc12 [Example 119, 1-(2,4′-dichloro-5-methoxy-3′-methyl-4-biphenylyl)-N-3-isoxazolyl-6-isoquinolinesulfonamide]",IC50,in-vitro PX data,73.6 nM
COc1cc(-c2ncnc3cc(S(=O)(=O)Nc4ccon4)ccc23)c(C)cc1-c1ccc(Cl)c(C)c1 [Example 34],IC50,in-vitro PX (PatchXpress) data,2610 nM
"COc1cc(-c2ccc(C)c(Cl)c2)c(F)cc1-c1nccc2cc(S(=O)(=O)Nc3ccon3)ccc12 [Example 91, 1-(3′-chloro-2-fluoro-5-methoxy-4′-methyl-4-biphenylyl)-N-3-isoxazolyl-6-isoquinolinesulfonamide]",IC50,"PatchXpress (PX), in vitro",101 nM
"COc1nc(OC2CCC(F)(F)CC2)ccc1-c1nccc2cc(S(=O)(=O)Nc3ccncn3)ccc12 [Example 75, 1-(6-((4,4-difluorocyclohexyl)oxy)-2-methoxy-3-pyridinyl)-N-4-pyrimidinyl-6-isoquinolinesulfonamide]",IC50,"PatchXpress (PX), in vitro",727 nM
"COc1ncc(-c2ccccc2)cc1-c1nccc2cc(S(=O)(=O)Nc3ccncn3)ccc12 [Example 152, 1-(2-methoxy-5-phenyl-3-pyridinyl)-N-4-pyrimidinyl-6-isoquinolinesulfonamide]",IC50,in-vitro Nav 1.7 PX data,2440 nM
"COc1cc(N2CC(F)(F)C2)c(C#N)cc1-c1nccc2cc(S(=O)(=O)Nc3nncs3)ccc12 [Example 24, 1-(5-CYANO-4-(3,3-DIFLUOROAZETIDIN-1-YL)-2-METHOXYPHENYL)-N-(1,3,4-THIADIAZOL-2-YL)ISOQUINOLINE-6-SULFONAMIDE]",IC50,in-vitro PX,1360 nM
"Cn1nccc1-c1cc(-c2cc(F)cc(F)c2)ccc1-c1nccc2cc(S(=O)(=O)Nc3ccon3)ccc12 [Example 4, 1-(3′,5′-DIFLUORO-3-(1-METHYL-1H-PYRAZOL-5-YL)-[1,1′-BIPHENYL]-4-YL)-N-(ISOXAZOL-3-YL)ISOQUINOLINE-6-SULFONAMIDE 2,2,2-TRIFLUOROACETATE]",IC50,in-vitro PX data,148 nM
"COc1cc(-c2ccc(F)c(Cl)c2)c(Cl)cc1-c1ncnc2cc(S(=O)(=O)Nc3ccon3)ccc12 [Example 19, 4-(2,3′-DICHLORO-4′-FLUORO-5-METHOXY-[1,1′-BIPHENYL]-4-YL)-N-(ISOXAZOL-3-YL)QUINAZOLINE-7-SULFONAMIDE]",IC50,in-vitro PX (PatchXpress) data,7.8 nM
"COc1cc(-c2cc(F)cc(F)c2)c(F)cc1-c1nccc2cc(S(=O)(=O)Nc3ccon3)ccc12 [Example 98, N-3-isoxazolyl-1-(2,3′,5′-trifluoro-5-methoxy-4-biphenylyl)-6-isoquinolinesulfonamide]",IC50,"PatchXpress (PX), in vitro",34.5 nM
"O=S(=O)(Nc1ccon1)c1ccc2c(-c3ccc(-c4cccc(F)c4)cc3CO)nccc2c1 [Example 12, 1-(3′-FLUORO-3-(HYDROXYMETHYL)-[1,1′-BIPHENYL]-4-YL)-N-(ISOXAZOL-3-YL)ISOQUINOLINE-6-SULFONAMIDE 2,2,2-TRIFLUOROACETATE]",IC50,,2210 nM
"COc1cc(-c2ccc(Cl)c(C)c2)c(F)cc1-c1nccc2cc(S(=O)(=O)Nc3ncccn3)ccc12 [Example 88, 1-(4′-chloro-2-fluoro-5-methoxy-3′-methyl-4-biphenylyl)-N-2-pyrimidinyl-6-isoquinolinesulfonamide]",IC50,"PatchXpress (PX), in vitro",227 nM
"COc1nc(N(C)CC(C)C)ccc1-c1nccc2cc(S(=O)(=O)Nc3ccncn3)ccc12 [Example 68, 1-(2-methoxy-6-(methyl(2-methylpropyl)amino)-3-pyridinyl)-N-4-pyrimidinyl-6-isoquinolinesulfonamide]",IC50,"PatchXpress (PX), in vitro",2880 nM
"COc1cc(-c2cc(F)cc(F)c2)ccc1-c1nccc2cc(S(=O)(=O)Nc3cc(C)on3)ccc12 [Example 126, 1-(3′,5′-difluoro-3-methoxy-4-biphenylyl)-N-(5-methyl-3-isoxazolyl)-6-isoquinolinesulfonamide]",IC50,in-vitro PX data,4190 nM
"COc1cc(-c2ccc(Cl)c(C)c2)c(Cl)cc1-c1ncnc2cc(S(=O)(=O)Nc3ccon3)ccc12 [Example 204, 4-(2,4′-dichloro-5-methoxy-3′-methyl-4-biphenylyl)-N-3-isoxazolyl-7-quinazolinesulfonamide]",IC50,in-vitro PX,21.8 nM
"COc1cc(-c2cccc(F)c2)c(Cl)cc1-c1n[nH]c(=O)c2cc(S(=O)(=O)Nc3ccon3)ccc12 [Example 232, 1-(2-chloro-3′-fluoro-5-methoxy-4-biphenylyl)-N-3-isoxazolyl-4-oxo-3,4-dihydro-6-phthalazinesulfonamide]",IC50,in-vitro PX,126 nM
"Cc1ccc(OCC2CC2)cc1-c1nccc2cc(S(=O)(=O)Nc3ccncn3)ccc12 [Example 153, 1-(5-(cyclopropylmethoxy)-2-methylphenyl)-N-4-pyrimidinyl-6-isoquinolinesulfonamide]",IC50,in-vitro Nav 1.7 PX data,7680 nM
"COc1cc(-c2cccc(Cl)c2)c(F)cc1-c1ncnc2cc(S(=O)(=O)Nc3ccon3)ccc12 [Example 104, 4-(3′-chloro-2-fluoro-5-methoxy-4-biphenylyl)-N-3-isoxazolyl-7-quinazolinesulfonamide]",IC50,in-vitro PX data,8.4 nM
"COc1cc(-c2cccc(F)c2)c(C#N)cc1-c1nccc2cc(S(=O)(=O)Nc3ncccn3)ccc12 [Example 109, 1-(2-cyano-3′-fluoro-5-methoxy-4-biphenylyl)-N-2-pyrimidinyl-6-isoquinolinesulfonamide]",IC50,in-vitro PX data,241 nM
"COc1cc(C(F)(F)F)ccc1-c1ncnc2cc(S(=O)(=O)Nc3ccon3)ccc12 [Example 38, N-(ISOXAZOL-3-YL)-4-(2-METHOXY-4-(TRIFLUOROMETHYL)PHENYL)QUINAZOLINE-7-SULFONAMIDE]",IC50,,2570 nM
"COc1ccc(C)c(-c2cc(C)c(-c3ncnc4cc(S(=O)(=O)Nc5ccon5)ccc34)cc2OC)c1 [Example 173, 4-(2,5′-dimethoxy-2′,5-dimethyl-4-biphenylyl)-N-3-isoxazolyl-7-quinazolinesulfonamide]",IC50,in-vitro Nav 1.7 PX data,3840 nM
"COc1cc(-c2cc(F)cc(F)c2)ccc1-c1nccc2cc(S(=O)(=O)Nc3ncc(C(F)(F)F)o3)ccc12 [Example 143, 1-(3′,5′-difluoro-3-methoxy-4-biphenylyl)-N-(5-(trifluoromethyl)-1,3-oxazol-2-yl)-6-isoquinolinesulfonamide]",IC50,in-vitro Nav 1.7 PX data,3220 nM
"COc1cc(Oc2cc(C)cc(F)c2)ccc1-c1nccc2cc(S(=O)(=O)Nc3nncs3)ccc12 [Example 32, 1-(4-(3-FLUORO-5-METHYLPHENOXY)-2-METHOXYPHENYL)-N-(1,3,4-THIADIAZOL-2-YL)ISOQUINOLINE-6-SULFONAMIDE]",IC50,in-vitro PX (PatchXpress) data,129 nM
"COc1cc(-c2cccc(C(F)(F)F)c2)c(F)cc1-c1ncnc2cc(S(=O)(=O)Nc3ccon3)ccc12 [Example 102, 4-(2-fluoro-5-methoxy-3′-(trifluoromethyl)-4-biphenylyl)-N-3-isoxazolyl-7-quinazolinesulfonamide]",IC50,in-vitro PX data,22.9 nM
"COc1cc(-c2cccc(F)c2)ccc1C1c2ccc(S(=O)(=O)Nc3nncs3)cc2CCN1C(C)=O (stereo not drawn) [Example 52, 2-ACETYL-1-(3′-FLUORO-3-METHOXY-[1,1′-BIPHENYL]-4-YL)-N-(1,3,4-THIADIAZOL-2-YL)-1,2,3,4-TETRAHYDROISOQUINOLINE-6-SULFONAMIDE]",IC50,in-vitro PX,1690 nM
"COc1cc(-c2cc(F)cc(F)c2)ccc1-c1nccc2cc(S(=O)(=O)Nc3ncc(C#N)s3)ccc12 [Example 132, N-(5-cyano-1,3-thiazol-2-yl)-1-(3′,5′-difluoro-3-methoxy-4-biphenylyl)-6-isoquinolinesulfonamide]",IC50,in-vitro PX data,695 nM
"COc1cc(-c2ccc(F)c(C)c2)c(F)cc1-c1nccc2cc(S(=O)(=O)Nc3ccon3)ccc12 [Example 89, 1-(2,4′-difluoro-5-methoxy-3′-methyl-4-biphenylyl)-N-3-isoxazolyl-6-isoquinolinesulfonamide]",IC50,"PatchXpress (PX), in vitro",96.4 nM
"COc1cc(-c2ccc(Cl)c(C)c2)c(F)cc1-c1nccc2cc(S(=O)(=O)Nc3cccnn3)ccc12 [Example 87, 1-(4′-chloro-2-fluoro-5-methoxy-3′-methyl-4-biphenylyl)-N-3-pyridazinyl-6-isoquinolinesulfonamide]",IC50,"PatchXpress (PX), in vitro",178 nM
"COc1nc(Oc2ccc(F)cc2)ccc1-c1nccc2cc(S(=O)(=O)Nc3ccncn3)ccc12 [Example 45, 1-(6-(4-FLUOROPHENOXY)-2-METHOXYPYRIDIN-3-YL)-N-(PYRIMIDIN-4-YL)ISOQUINOLINE-6-SULFONAMIDE]",IC50,"PatchXpress (PX), in vitro",1510 nM
"O=S(=O)(Nc1nncs1)c1ccc2c(-c3ccc(-c4cccc(F)c4)cc3CO)nccc2c1 [Example 11, 1-(3′-FLUORO-3-(HYDROXYMETHYL)-[1,1′-BIPHENYL]-4-YL)-N-(1,3,4-THIADIAZOL-2-YL)ISOQUINOLINE-6-SULFONAMIDE]",IC50,in-vitro Nav 1.7 PX data,1600 nM
"COc1nc(OC2CCCCC2)ccc1-c1nccc2cc(S(=O)(=O)Nc3ccncn3)ccc12 [Example 65, 1-(6-(cyclohexyloxy)-2-methoxy-3-pyridinyl)-N-4-pyrimidinyl-6-isoquinolinesulfonamide]",IC50,"PatchXpress (PX), in vitro",1730 nM
"COc1cc(-c2cccnc2OC)ccc1-c1nccc2cc(S(=O)(=O)Nc3nncs3)ccc12 [Example 166, 1-(2-methoxy-4-(2-methoxy-3-pyridinyl)phenyl)-N-1,3,4-thiadiazol-2-yl-6-isoquinolinesulfonamide]",IC50,in-vitro Nav 1.7 PX data,794 nM
"COc1cc(N2CC(F)(F)C2)c(C#N)cc1-c1nccc2cc(S(=O)(=O)Nc3ccon3)ccc12 [Example 23, 1-(5-CYANO-4-(3,3-DIFLUOROAZETIDIN-1-YL)-2-METHOXYPHENYL)-N-(ISOXAZOL-3-YL)ISOQUINOLINE-6-SULFONAMIDE]",IC50,,988 nM
"COc1cc(-c2cc(F)cc(F)c2)ccc1-c1nccc2cc(S(=O)(=O)NC(C)=O)ccc12 [Example 136, N-((1-(3′,5′-difluoro-3-methoxy-4-biphenylyl)-6-isoquinolinyl)sulfonyl)acetamide]",IC50,in-vitro PX data,11200 nM
"COc1cc(-c2cc(F)cc(F)c2)ccc1-c1nccc2cc(S(=O)(=O)Nc3cncc(C)n3)ccc12 [Example 131, 1-(3′,5′-difluoro-3-methoxy-4-biphenylyl)-N-(6-methyl-2-pyrazinyl)-6-isoquinolinesulfonamide]",IC50,in-vitro PX data,1630 nM
"COc1cc(-c2cc(F)cnc2OC)c(F)cc1-c1nccc2cc(S(=O)(=O)Nc3ccsn3)ccc12 [Example 99, 1-(5-fluoro-4-(5-fluoro-2-methoxy-3-pyridinyl)-2-methoxyphenyl)-N-3-isothiazolyl-6-isoquinolinesulfonamide]",IC50,"PatchXpress (PX), in vitro",66.3 nM
